{"source": "patent US20150297733A1", "about": "(TRIMEL BIOPHARMA SRL, priority 2012, published 2015)", "key": {"[1]": {"conditions": "nasal, cited from earlier work"}, "[2]": {"conditions": "dissolved in polyethylene glycol (200 mg/ml); high variations; cited from earlier work"}, "[3]": {"target": "T1, sex hormone binding globulin (SHBG) (Homo sapiens, UniProt P04278)", "T1 sequence (P04278 30-402)": "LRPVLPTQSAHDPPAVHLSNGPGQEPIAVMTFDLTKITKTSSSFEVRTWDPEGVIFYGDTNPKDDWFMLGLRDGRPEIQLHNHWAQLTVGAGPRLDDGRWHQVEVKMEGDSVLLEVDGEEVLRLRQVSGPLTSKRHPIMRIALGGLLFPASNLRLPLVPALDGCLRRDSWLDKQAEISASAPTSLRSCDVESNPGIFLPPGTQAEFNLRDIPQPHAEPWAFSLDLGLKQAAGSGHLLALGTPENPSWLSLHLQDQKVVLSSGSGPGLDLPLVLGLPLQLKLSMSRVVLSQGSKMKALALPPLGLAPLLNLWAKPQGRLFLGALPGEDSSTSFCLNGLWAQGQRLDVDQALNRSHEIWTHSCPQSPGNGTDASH", "conditions": "cited from earlier work"}, "[4]": {"test": "Solubility of testosterone in water, oils, solvents and vehicles"}, "[5]": {"conditions": "nasal, cited from earlier work", "remark": "listed apart in the source"}}, "note": "Like-named read-outs stand apart in the source and are kept apart here."}
{"compound": "CC(=O)[C@H]1CC[C@H]2[C@@H]3CCC4=CC(=O)CC[C@]4(C)[C@H]3CC[C@]12C", "note": "[progesterone]", "values": [{"measurement": "Tmax", "setting": "[1]; co-ground and co-lyophilized progesterone/cyclodextrin powder mixtures", "value": "2 to 5", "unit": "min"}, {"measurement": "time of serum level decrease", "setting": "[1]; progesterone/cyclodextrin powder mixtures", "value": "≤ 20", "unit": "min"}, {"measurement": "duration of serum level", "setting": "[2]", "value": "at least 8 hours"}]}
{"compound": "C[C@]12CC[C@H]3[C@@H](CCC4=CC(=O)CC[C@@]43C)[C@@H]1CC[C@@H]2O", "note": "[Testosterone]", "values": [{"measurement": "fraction remaining unbound (free)", "setting": "[3]; in men", "value": "about 2%"}, {"measurement": "fraction remaining unbound (free)", "setting": "[3]; in women", "value": "up to 3%"}, {"measurement": "amount dissolved by diethyleneglycol ethyl ether alone", "setting": "[4]", "value": "more than 10%"}, {"measurement": "amount dissolved by dimethyl isosorbide (DMI)", "setting": "[4]", "value": "more than 12%"}, {"measurement": "testosterone levels in the gel allowed by DMI with the other excipients", "setting": "[4]", "value": "at least 8.0%"}, {"measurement": "testosterone solubility in the oil based gel", "setting": "[4]; oil based TBS-1A gel as printed", "value": "≤ 4.5", "unit": "%"}]}
{"compound": "CN(C)CC(=O)O[C@H]1CC[C@H]2[C@@H]3CCC4=CC(=O)CC[C@]4(C)[C@H]3CC[C@]12C", "note": "[testosterone 17β-N,N-dimethylglycinate]", "values": [{"measurement": "time to peak plasma concentration", "setting": "[5]; 25 mg dose", "value": "≤ 12", "unit": "min"}, {"measurement": "time to peak plasma concentration", "setting": "[5]; 50 mg dose", "value": "≤ 20", "unit": "min"}]}
